Test results taken from patent US20160075667A1, “COMPOSITIONS AND METHODS FOR CHEMICAL EXCHANGE SATURATION TRANSFER (CEST) MAGNETIC RESONANCE IMAGING (MRI)” (The Johns Hopkins University, priority 2013, published 2016).

Test: Phantom calibration: CEST MTRasym spectra of I45DC-(Glu)2 in PBS
Assay type: physicochemical
Conditions: pH 5.4 to 7.5
Protocol: I45DC-(Glu)2 was dissolved in PBS with conc. of 50 mM, 25 mM, 12 mM and 6.25 mM and pH from 5.4 to 7.5.
Images were taken on Bruker 11.7T scanners, using a RARE sequence with CW saturation pulse of B1=5.9 uT, Tsat=3 s. For phantoms, saturation frequency incremented every 0.3 ppm from −15 to 15 ppm with TR/TE=6000 ms/17 ms, matrix size=64×48. For in vivo, an axial slice across both kidney carlyx was chosen with thickness of 1.5 mm CEST images with saturation frequencies of [±7.8 ppm, ±7.5 ppm, ±7.2 ppm] and [±4.8 ppm, ±4.5 ppm, ±4.2 ppm] for pH reference were acquired repeatedly every 10 min pre- and post-injection. Image parameters are similar as for phantom except for TR/TE=5 s/15 ms, and CEST contrast was quantified by
MTRasym=(S−Δω−S+Δω)/S−Δω.
CEST MTRasym spectra of I45DC-(Glu)2 (FIG. 5A) show 2 broad peaks centered at 7.5 ppm and 2.4 ppm, with the 7.5 ppm peak increasing as pH increases, while the 2.5 ppm-5 ppm part remains relatively constant. […] The linearity of the ratio using saturation B1=5.9 uT is better than B1=3.6 uT partially due to a relative fast exchange rate of the heterocyclic NH (kex=˜4000).

With `O=C[C@H](CCC(=O)O)NNC(=O)c1nc[nH]c1C(=O)NN[C@H](C=O)CCC(=O)O` [I45DC-(Glu)2, 4,5-bis[(Glu)carbonyl]-1H-imidazole] the “ratio of the 7.5 ppm contrast to contrast at 4.8 ppm” value (6.25-50 mM) was “dependent on pH” and the “exchange rate of the heterocyclic NH (kex)” value was about 4000.
